IC50 data for 31 compounds are collected here from US12331046B2, “CTPS1 inhibitors and uses thereof” (Nimbus Clotho, Inc., priority 2020, dated 2025).

The target of the assay is human CTPS1 (Homo sapiens (Human), UniProt P17812). The assay is described as follows: hCTPS1 biochemical assay (ADP-Glo). The note with it: hCTPS1 25 nM, ATP 120 uM, UTP 160 uM, GTP 60 uM, L-Glutamine 100 uM, 25 degrees C. (In general: ADP-Glo first removes unused ATP, then detects ADP through luciferase.)
Sequence of human CTPS1 (P17812 whole entry): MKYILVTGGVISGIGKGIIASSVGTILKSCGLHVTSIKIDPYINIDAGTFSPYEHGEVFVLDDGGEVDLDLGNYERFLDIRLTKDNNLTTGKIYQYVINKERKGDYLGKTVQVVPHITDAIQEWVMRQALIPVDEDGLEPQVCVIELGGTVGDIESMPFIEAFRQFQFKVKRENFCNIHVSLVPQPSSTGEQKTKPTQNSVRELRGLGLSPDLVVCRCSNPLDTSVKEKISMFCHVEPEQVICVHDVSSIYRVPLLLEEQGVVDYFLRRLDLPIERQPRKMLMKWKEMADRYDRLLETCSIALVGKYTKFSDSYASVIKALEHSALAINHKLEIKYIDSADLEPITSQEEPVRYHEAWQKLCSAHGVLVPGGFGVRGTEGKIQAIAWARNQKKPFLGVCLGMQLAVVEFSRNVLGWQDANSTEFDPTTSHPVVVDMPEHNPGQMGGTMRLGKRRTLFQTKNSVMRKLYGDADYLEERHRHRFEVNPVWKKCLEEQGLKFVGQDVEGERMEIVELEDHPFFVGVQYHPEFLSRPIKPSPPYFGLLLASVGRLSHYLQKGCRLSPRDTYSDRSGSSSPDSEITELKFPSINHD
The compound `CCOc1cncc(-c2cnc(C(=O)N[C@H](CN3C[C@H]4C[C@@H]3CO4)c3cc(NS(=O)(=O)C4CC4)ccn3)s2)n1` [I-112, N—((R)-2-((1R,4R)-2-oxa-5-azabicyclo[2.2.1]heptan-5-yl)-1-(4-(cyclopropanesulfonamido)pyridin-2-yl)ethyl)-5-(6-ethoxypyrazin-2-yl)thiazole-2-carboxamide] gave an IC50 of less than 100 nM.

`CCOc1cncc(-c2cnc(C(=O)N[C@@H](CN3C[C@H]4C[C@@H]3CO4)c3cc(NS(=O)(=O)C4CC4)ccn3)s2)n1` [I-113, N—((S)-2-((1R,4R)-2-oxa-5-azabicyclo[2.2.1]heptan-5-yl)-1-(4-(cyclopropanesulfonamido)pyridin-2-yl)ethyl)-5-(6-ethoxypyrazin-2-yl)thiazole-2-carboxamide]: the IC50 was less than 100 nM.

`CCOc1cncc(-c2cnc(C(=O)N[C@@H](CN3[C@@H]4COC[C@H]3C4)c3cc(NS(=O)(=O)C4CC4)ccn3)s2)n1` [I-114] came in with an IC50 of less than 100 nM.

The compound `CCOc1cncc(-c2cnc(C(=O)N[C@H](CN3[C@@H]4COC[C@H]3C4)c3cc(NS(=O)(=O)C4CC4)ccn3)s2)n1` [I-115] displayed an IC50 of less than 100 nM.

In turn, `CCOc1cncc(-c2cnc(C(=O)NC(CN3CCOCC3(C)C)c3cc(NS(=O)(=O)C4CC4)ccn3)s2)n1` (stereo not shown) [I-122] displayed an IC50 of less than 100 nM.

With `CCOc1cncc(-c2cnc(C(=O)NC(CCN(C)C)c3c(F)ccc(NS(=O)(=O)C4CC4)c3F)s2)n1` (stereo not shown) [I-123, N-[1-(3-cyclopropanesulfonamido-2,6-difluorophenyl)-3-(dimethylamino)propyl]-5-(6-ethoxypyrazin-2-yl)-1,3-thiazole-2-carboxamide], the IC50 is not below 1000 nM.

Compound `CCOc1cncc(-c2cnc(C(=O)N[C@H](CCN3CC[C@H](F)C3)c3cc(NS(=O)(=O)C4CC4)ccn3)s2)n1` [I-126, N—((R)-1-(4-(cyclopropanesulfonamido)pyridin-2-yl)-3-((S)-3-fluoropyrrolidin-1-yl)propyl)-5-(6-ethoxypyrazin-2-yl)thiazole-2-carboxamide] showed an IC50 of less than 100 nM.

The compound `CCOc1cncc(-c2cnc(C(=O)N[C@H](CCN3CC[C@@H](F)C3)c3cc(NS(=O)(=O)C4CC4)ccn3)s2)n1` [I-127, N—((R)-1-(4-(cyclopropanesulfonamido)pyridin-2-yl)-3-((R)-3-fluoropyrrolidin-1-yl)propyl)-5-(6-ethoxypyrazin-2-yl)thiazole-2-carboxamide] yielded an IC50 of less than 100 nM.

In turn, `CCOc1cncc(-c2cnc(C(=O)N[C@@H](CCN3CC[C@@H](F)C3)c3cc(NS(=O)(=O)C4CC4)ccn3)s2)n1` [I-128, N—((S)-1-(4-(cyclopropanesulfonamido)pyridin-2-yl)-3-((R)-3-fluoropyrrolidin-1-yl)propyl)-5-(6-ethoxypyrazin-2-yl)thiazole-2-carboxamide] gave an IC50 of less than 100 nM.

On to `CCOc1cncc(-c2cnc(C(=O)N[C@@H](CCN3CC[C@H](F)C3)c3cc(NS(=O)(=O)C4CC4)ccn3)s2)n1` [I-129, N—((S)-1-(4-(cyclopropanesulfonamido)pyridin-2-yl)-3-((S)-3-fluoropyrrolidin-1-yl)propyl)-5-(6-ethoxypyrazin-2-yl)thiazole-2-carboxamide], for which the IC50 is less than 100 nM.

Regarding `CCOc1cncc(-c2cnc(C(=O)NC(CCN3CC[C@H](F)C3)c3cc(NS(=O)(=O)C4CC4)ccn3)s2)n1` (stereo partly drawn) [I-130, N-(1-(4-(cyclopropanesulfonamido)pyridin-2-yl)-3-((S)-3-fluoropyrrolidin-1-yl)propyl)-5-(6-ethoxypyrazin-2-yl)thiazole-2-carboxamide], the IC50 was less than 100 nM.

In turn, `CCOc1cncc(-c2cnc(C(=O)NC(CCN3CC[C@@H](F)C3)c3cc(NS(=O)(=O)C4CC4)ccn3)s2)n1` (stereo partly drawn) [I-131, N-(1-(4-(cyclopropanesulfonamido)pyridin-2-yl)-3-((R)-3-fluoropyrrolidin-1-yl)propyl)-5-(6-ethoxypyrazin-2-yl)thiazole-2-carboxamide] yielded an IC50 of less than 100 nM.

Turning to `CCOc1cncc(-c2cnc(C(=O)NC3(c4cc(NS(=O)(=O)C5CC5)ccn4)CCOCC3)s2)n1` [I-132], the IC50 was less than 100 nM.

In the case of `O=C(c1ncc(-c2cnc3[nH]cc(CC(F)F)c3n2)s1)N1CCCC1c1ccnc(NS(=O)(=O)C2CC2)n1` (stereo not shown) [I-137, N-[4-(1-{5-[7-(2,2-difluoroethyl)-5H-pyrrolo[2,3-b]pyrazin-2-yl]-1,3-thiazole-2-carbonyl}pyrrolidin-2-yl)pyrimidin-2-yl] cyclopropanesulfonamide], the IC50 was less than 100 nM.

In the case of `CCOc1cncc(-c2cnc(C(=O)N[C@@H](C[C@H]3CCCCN3C)c3cc(NS(=O)(=O)C4CC4)ccn3)s2)n1` [I-142, N—((S)-1-(4-(cyclopropanesulfonamido)pyridin-2-yl)-2-((R)-1-methylpiperidin-2-yl)ethyl)-5-(6-ethoxypyrazin-2-yl)thiazole-2-carboxamide], the IC50 is less than 100 nM.

Take `CCOc1cncc(-c2cnc(C(=O)N[C@H](C[C@H]3CCCCN3C)c3cc(NS(=O)(=O)C4CC4)ccn3)s2)n1` [I-145, N—((R)-1-(4-(cyclopropanesulfonamido)pyridin-2-yl)-2-((R)-1-methylpiperidin-2-yl)ethyl)-5-(6-ethoxypyrazin-2-yl)thiazole-2-carboxamide]: the IC50 was less than 100 nM.

Take `CCOc1cncc(-c2cnc(C(=O)NC(c3cc(NS(=O)(=O)C4CC4)ccn3)C3CCN(C)CC3)s2)n1` (stereo not shown) [I-146, N-((4-(cydopropanesulfonamido)pyridin-2-yl)(1-methylpiperidin-4-yl)methyl)-5-(6-ethoxypyrazin-2-yl)thiazole-2-carboxamide]: the IC50 was less than 100 nM.

For the compound `CCOc1cncc(-c2cnc(C(=O)N[C@@H](c3cc(NS(=O)(=O)C4CC4)ccn3)C3CCN(C)CC3)s2)n1` [I-147, (R)—N-((4-(cyclopropanesulfonamido)pyridin-2-yl)(1-methylpiperidin-4-yl)methyl)-5-(6-ethoxypyrazin-2-yl)thiazole-2-carboxamide], the IC50 was less than 100 nM.

Compound `CCOc1cncc(-c2cnc(C(=O)N[C@H](c3cc(NS(=O)(=O)C4CC4)ccn3)C3CCN(C)CC3)s2)n1` [I-148, (S)—N-((4-(cyclopropanesulfonamido)pyridin-2-yl)(1-methylpiperidin-4-yl)methyl)-5-(6-ethoxypyrazin-2-yl)thiazole-2-carboxamide] displayed an IC50 of less than 100 nM.

For the compound `CCn1ncc2ncc(-c3cnc(C(=O)NCc4cc(NS(=O)(=O)C5CC5)ccn4)s3)nc21` [I-149, N-((4-(cyclopropanesulfonamido)pyridin-2-yl)methyl)-5-(1-ethyl-1H-pyrazolo[3,4-b]pyrazin-6-yl)thiazole-2-carboxamide], the IC50 was not below 1000 nM.

`CC[C@H](NC(=O)c1ncc(-c2cnn3ccc(Cl)cc23)s1)c1cc(NS(=O)(=O)C2CC2)ccn1` [I-150, (S)-5-(5-chloropyrazolo[1,5-a]pyridin-3-yl)-N-(1-(4-(cyclopropanesulfonamido)pyridin-2-yl)propyl)thiazole-2-carboxamide] yielded an IC50 of less than 100 nM.

Compound `CC[C@@H](NC(=O)c1ncc(-c2cnn3ccc(Cl)cc23)s1)c1cc(NS(=O)(=O)C2CC2)ccn1` [I-151, (R)-5-(5-chloropyrazolo[1,5-a]pyridin-3-yl)-N-(1-(4-(cyclopropanesulfonamido)pyridin-2-yl)propyl)thiazole-2-carboxamide] had an IC50 of less than 100 nM.

On to `CCOc1cncc(-c2cnc(C(=O)NC(CCN(C)C)c3cccc(NS(=O)(=O)C4CC4)c3)s2)n1` (stereo not shown) [I-152, N-(1-(3-(cyclopropanesulfonamido)phenyl)-3-(dimethylamino)propyl)-5-(6-ethoxypyrazin-2-yl)thiazole-2-carboxamide], for which the IC50 is less than 100 nM.

`CCOc1cncc(-c2cnc(C(=O)NC(c3cc(NS(=O)(=O)C4CC4)ccn3)C3CCNCC3)s2)n1` (stereo not shown) [I-153, N-((4-(cyclopropanesulfonamido)pyridin-2-yl)(piperidin-4-yl)methyl)-5-(6-ethoxypyrazin-2-yl)thiazole-2-carboxamide] yielded an IC50 of less than 100 nM.

As for `O=C(NCc1cc(NS(=O)(=O)C2CC2)ccn1)c1ncc(-c2cncc3c(Cl)cnn23)s1` [I-154], the IC50 was less than 100 nM.

Compound `CCOc1cncc(-c2cnc(C(=O)N[C@@H](CCCN(C)C)c3cc(NS(=O)(=O)C4CC4)ccn3)s2)n1` [I-155, (S)—N-(1-(4-(cyclopropanesulfonamido)pyridin-2-yl)-4-(dimethylamino)butyl)-5-(6-ethoxypyrazin-2-yl)thiazole-2-carboxamide] gave an IC50 of less than 100 nM.

For `CCOc1cncc(-c2cnc(C(=O)N[C@H](CCCN(C)C)c3cc(NS(=O)(=O)C4CC4)ccn3)s2)n1` [I-156, (R)—N-(1-(4-(cyclopropanesulfonamido)pyridin-2-yl)-4-(dimethylamino)butyl)-5-(6-ethoxypyrazin-2-yl)thiazole-2-carboxamide], the IC50 is less than 100 nM.

`CCOc1cncc(-c2cnc(C(=O)N[C@](C)(CCOC)c3cc(NS(=O)(=O)C4CC4)ccn3)s2)n1` [I-157, (R)—N-(2-(4-(cyclopropanesulfonamido)pyridin-2-yl)-4-methoxybutan-2-yl)-5-(6-ethoxypyrazin-2-yl)thiazole-2-carboxamide] showed an IC50 of 100 to 1000 nM.

In turn, `CCOc1cncc(-c2cnc(C(=O)N[C@H](CCN3CCCC3)c3cc(NS(=O)(=O)C4CC4)ccn3)s2)n1` [I-158, (R)—N-(1-(4-(cyclopropanesulfonamido)pyridin-2-yl)-3-(pyrrolidin-1-yl)propyl)-5-(6-ethoxypyrazin-2-yl)thiazole-2-carboxamide] displayed an IC50 of less than 100 nM.

`CCOc1cncc(-c2cnc(C(=O)N[C@@H](CCN3CCCC3)c3cc(NS(=O)(=O)C4CC4)ccn3)s2)n1` [I-159, (S)—N-(1-(4-(cyclopropanesulfonamido)pyridin-2-yl)-3-(pyrrolidin-1-yl)propyl)-5-(6-ethoxypyrazin-2-yl)thiazole-2-carboxamide] displayed an IC50 of less than 100 nM.

Compound `CCOc1cncc(-c2cnc(C(=O)N[C@H](CCN3CCCCC3)c3cc(NS(=O)(=O)C4CC4)ccn3)s2)n1` [I-160, (R)—N-(1-(4-(cyclopropanesulfonamido)pyridin-2-yl)-3-(piperidin-1-yl)propyl)-5-(6-ethoxypyrazin-2-yl)thiazole-2-carboxamide] showed an IC50 of 100 to 1000 nM.

As a reminder, the IC50 is the concentration that inhibits the measured activity by half. Read a low IC50 as greater potency.
